{"source": "patent US20240158375A1", "about": "“COMPOUNDS AND METHODS FOR THE TREATMENT OF OCULAR DISORDERS” (Azura Ophthalmics Ltd., priority 2020, published 2024)", "origin": "cited, not measured here", "key": {"integrin α4": {"target": "integrin α4 (Homo sapiens, UniProt P05556+P13612)", "sequence (P13612 34-1032, species assumed)": "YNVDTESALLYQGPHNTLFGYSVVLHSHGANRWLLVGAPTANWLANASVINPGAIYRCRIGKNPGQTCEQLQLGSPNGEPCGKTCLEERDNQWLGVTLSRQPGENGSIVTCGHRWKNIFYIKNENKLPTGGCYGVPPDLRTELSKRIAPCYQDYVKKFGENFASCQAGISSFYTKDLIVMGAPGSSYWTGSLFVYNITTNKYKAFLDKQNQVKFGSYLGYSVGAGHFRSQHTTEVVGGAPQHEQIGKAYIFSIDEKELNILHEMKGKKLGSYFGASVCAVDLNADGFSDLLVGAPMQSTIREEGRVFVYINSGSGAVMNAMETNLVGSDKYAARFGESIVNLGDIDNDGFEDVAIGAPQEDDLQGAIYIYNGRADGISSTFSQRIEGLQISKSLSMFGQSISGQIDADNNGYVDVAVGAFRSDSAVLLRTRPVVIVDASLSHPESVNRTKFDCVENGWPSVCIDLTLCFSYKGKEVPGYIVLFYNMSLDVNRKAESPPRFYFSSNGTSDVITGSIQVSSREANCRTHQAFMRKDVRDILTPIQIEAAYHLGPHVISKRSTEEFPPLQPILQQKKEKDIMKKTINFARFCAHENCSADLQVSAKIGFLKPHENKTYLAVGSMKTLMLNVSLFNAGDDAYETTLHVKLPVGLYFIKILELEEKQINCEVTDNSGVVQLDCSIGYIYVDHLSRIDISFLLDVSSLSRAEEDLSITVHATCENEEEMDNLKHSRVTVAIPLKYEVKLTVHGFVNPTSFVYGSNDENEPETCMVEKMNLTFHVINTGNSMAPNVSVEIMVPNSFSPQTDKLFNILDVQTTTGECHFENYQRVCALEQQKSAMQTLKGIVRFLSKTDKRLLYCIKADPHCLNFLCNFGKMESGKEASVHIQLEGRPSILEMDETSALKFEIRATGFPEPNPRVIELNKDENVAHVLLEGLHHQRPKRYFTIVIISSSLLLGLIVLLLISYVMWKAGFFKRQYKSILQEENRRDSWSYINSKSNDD", "sequence (P05556 21-798, species assumed)": "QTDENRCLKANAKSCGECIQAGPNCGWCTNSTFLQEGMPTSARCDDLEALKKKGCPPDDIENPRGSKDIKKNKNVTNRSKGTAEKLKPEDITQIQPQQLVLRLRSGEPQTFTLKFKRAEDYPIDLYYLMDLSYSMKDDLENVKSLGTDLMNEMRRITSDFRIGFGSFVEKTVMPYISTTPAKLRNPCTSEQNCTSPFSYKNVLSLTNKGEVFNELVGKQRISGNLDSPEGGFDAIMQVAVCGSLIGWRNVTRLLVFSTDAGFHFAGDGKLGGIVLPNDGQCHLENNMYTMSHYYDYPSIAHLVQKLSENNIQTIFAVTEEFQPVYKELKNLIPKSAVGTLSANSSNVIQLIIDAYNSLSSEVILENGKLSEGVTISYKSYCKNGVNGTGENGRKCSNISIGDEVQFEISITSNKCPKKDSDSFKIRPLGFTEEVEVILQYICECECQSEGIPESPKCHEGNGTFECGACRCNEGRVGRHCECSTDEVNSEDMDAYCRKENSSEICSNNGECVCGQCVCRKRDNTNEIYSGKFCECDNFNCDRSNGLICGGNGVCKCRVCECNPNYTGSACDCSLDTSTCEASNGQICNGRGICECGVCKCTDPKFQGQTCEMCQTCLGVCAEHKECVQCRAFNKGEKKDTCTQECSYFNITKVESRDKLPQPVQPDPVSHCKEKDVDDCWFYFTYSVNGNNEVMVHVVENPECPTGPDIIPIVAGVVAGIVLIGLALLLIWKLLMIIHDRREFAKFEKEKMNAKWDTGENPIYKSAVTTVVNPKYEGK", "settings": "Ravensberg et al, Allergy (2006) 61, 1097-1103"}, "murine DS model": {"tested_on": "murine DS model", "settings": "Invest. Ophthalmol. Vis. Sci. (2015) 56(10), 5888-5895"}}}
{"compound": "Cc1ccccc1OCC(=O)N[C@@H](CC(C)C)C(=O)N[C@@H](Cc1ccc(OC(=O)N2CCC(C(N)=O)CC2)cc1)C(=O)O", "note": "[(S)-3-(4-((4-carbamoylpiperidine-1-carbonyl)oxy)phenyl)-2-((S)-4-methyl-2-(2-(o-tolyloxy)acetamido)pentanamido)propanoic acid]", "values": [{"measurement": "integrin α4 antagonist activity", "setting": "integrin α4", "value": "potent integrin a4 antagonist"}, {"measurement": "objective signs of dry eye", "setting": "murine DS model", "value": "improvements in objective signs of dry eye"}]}
